Tested on: conscious dogs
Assay: Gastric emptying of an acaloric liquid test meal delayed by administration of lidamidine, in conscious dogs
Format: in vivo, beagle dogs
Settings: compounds, conscious dog, Δt = t 70% compound minus t 70% solvent, relative to t 70% solvent; for ΔT/T^a (acceleration of gastric emptying of a liquid meal delayed by lidamidine) / change in vivo at 0.01 mg/kg: dose 0.01 mg/kg; for ΔT/T^b (acceleration of gastric emptying of a liquid meal delayed by lidamidine) / change in vivo at 0.0025 mg/kg: dose 0.0025 mg/kg; for change in vivo at 0.0025 mg/kg / change in vivo at 0.01 mg/kg: Canis lupus familiaris; for change in vivo at 0.0025 mg/kg: read-out: ΔT/T^b (acceleration of gastric emptying of a liquid meal delayed by lidamidine); for change in vivo at 0.01 mg/kg: read-out: ΔT/T^a (acceleration of gastric emptying of a liquid meal delayed by lidamidine)
Excerpt: C. Pharmacological Examples C.1. Gastric Emptying of an Acaloric Liquid Test Meal Delayed by Administration of Lidamidine, in Conscious Dogs
Female beagle dogs, weighing 7-14 kg, were trained to stand quietly in Pavlov frames. They were implanted with a gastric cannula under general anesthesia and aseptic precautions. After a medium laparatomy, an incision was made through the gastric wall in the longitudinal direction between the greater and the lesser curve, 2 cm above the nerves of Latarjet. The cannula was secured to the gastric wall by means of a double purse string suture and brought out via a stab wound at the left quadrant of the hypochondrium. Dogs were allowed a recovery period of at least two weeks. Experiments were started after a fasting period of 24 hours, during which water was available ad libitum. At the beginning of the experiment, the cannula was opened in order to remove any gastric juice or food remnants.
The stomach was cleansed with 40 to 50 ml lukewarm water. The test compound was administered I.V. (in a volume ≦3 ml via the vena cephalica), S.C. (in a volume ≦3 ml) or P.O. (in a volume of 1 ml/kg body weight, applied intragastrically via the cannula with a device that filled the lumen of the cannula: after injection of the test compound; 5 ml NaCl 0.9% was injected in order to correct for the dead space in the injection system). Immediately after administration of the test compound or its solvent, lidamidine (0.63 mg/kg was administered subcutaneously. 30 min later, the cannula was opened to determine the amount of fluid present in the stomach, promptly followed by reintroduction of the fluid. Then the test meal was administered via the cannula. This test meal consisted of 250 ml distilled water containing glucose (5 g/l) as a marker. The cannula remained closed for 30 min, whereafter the gastric contents were drained from the stomach to measure total volume (t=30 min). For later analysis 1 ml of the gastric contents was taken, promptly followed by reintroduction of the rest volume into the stomach. This sequence was repeated 4 times with 30 min intervals (t=60, 90, 120, 150 min).
In the 1 ml samples of the gastric contents, the glucose concentrations were measured on a Hitachi 717 automatic analyzer by the hexokinase method (Schmidt, 1961).
Curves were fitted to the measurement points (glucose versus time) using weighed non-linear regression analysis. Gastric emptying was quantified as the time needed to empty 70% of the meal (t 70%). The control emptying time was calculated as the mean t 70% of the last 5 solvent experiments of the same dog. Acceleration of delayed gastric emptying (Δt) was calculated as the time difference between t 70% compound and t 70% solvent. To correct for variations in emptying rate between dogs, Δt was expressed as % of t 70% solvent (Schuurkes et al. 1992)).

Molecule | ΔT/T^a (acceleration of gastric emptying of a liquid meal delayed by lidamidine) | ΔT/T^b (acceleration of gastric emptying of a liquid meal delayed by lidamidine) | change in vivo at 0.0025 mg/kg [%] | change in vivo at 0.01 mg/kg [%]
CC(=O)CCCN1CCC(O)(CNC(=O)c2cc(Cl)c(N)c3c2OC(C)(C)C3)CC1 [Compound 93] | −0.03 | – | – | –
CC(=O)CCCN1CC[C@@H](CNC(=O)c2cc(Cl)c(N)c3c2OCCO3)[C@@H](O)C1 (relative stereo) [Compound 58] | 0.09 | −0.20 | – | –
COCCCN1CC[C@@H](CNC(=O)c2cc(Cl)c(N)c3c2OCCO3)[C@H](O)C1 (relative stereo) [Compound 57] | −0.10 | −0.03 | – | –
COCCCN1CCC(O)(CNC(=O)c2cc(Cl)c(N)c3c2OC(C)(C)C3)CC1 [Compound 86] | −0.47 | −0.33 | – | –
CO[C@@H]1CN(CCCC(C)=O)CC[C@H]1CNC(=O)c1cc(Cl)c(N)c2c1OCC2 (relative stereo) [Compound 28, trans-4-amino-5-chloro-2,3-dihydro-N-[[3-methoxy-1-(4-oxopentyl)-4-piperidinyl]methyl]-7-benzofurancarboxamide] | – | – | -42 | -56
CCCCN1CC[C@@H](CNC(=O)c2cc(Cl)c(N)c3c2OCC3)[C@H](O)C1 (relative stereo) [Compound 2, trans-4-amino-N-[(1-butyl-3-hydroxy-4-piperidinyl)methyl]-5-chloro-2,3-dihydro-7-benzofurancarboxamide] | – | – | -61 | -34
CC(C)OCCCN1CC[C@@H](CNC(=O)c2cc(Cl)c(N)c3c2OCC3)[C@H](O)C1 (racemic) [Compound 19] | −0.78 | −0.30 | – | –
N#CCCCN1CC[C@@H](CNC(=O)c2cc(Cl)c(N)c3c2OCCC3)[C@H](O)C1 (relative stereo) [Compound 77] | −0.18 | – | – | –
CC(C)OCCCN1CC[C@@H](CNC(=O)c2cc(Cl)c(N)c3c2OC(C)(C)C3)[C@H](O)C1.O=C(O)/C=C\C(=O)O (racemic) [Compound 42] | −0.12 | – | – | –
Nc1c(Cl)cc(C(=O)NC[C@@H]2CCN(CCOCCO)C[C@H]2O)c2c1CCCO2.O=C(O)C(=O)O (relative stereo) [Compound 75] | −0.01 | −0.39 | – | –
CO[C@@H]1CN(CCCC(C)=O)CC[C@H]1CNC(=O)c1cc(Cl)c(N)c2c1OC(C)(C)C2.O=C(O)C(=O)O (relative stereo) [Compound 52] | −0.18 | – | – | –
CCCCN1CC[C@@H](CNC(=O)c2cc(Cl)c(N)c3c2OCCCO3)[C@H](O)C1.Cl (relative stereo) [Compound 65] | −0.07 | – | – | –
CC(=O)CCCN1CC[C@@H](CNC(=O)c2cc(Cl)c(N)c3c2OCCO3)[C@H](O)C1.O (relative stereo) [Compound 59] | −0.13 | −0.15 | – | –
COCCCN1CC[C@@H](CNC(=O)c2cc(Cl)c(N)c3c2OC(C)(C)C3)[C@H](O)C1 (relative stereo) [Compound 39, trans-(−)-4-amino-5-chloro-2,3-dihydro-N-[[3-hydroxy-1-(3-methoxypropyl)-4-piperidinyl]methyl]-2,2-dimethyl-7-benzofurancarboxamide] | −0.53 | −0.43 | – | –
CCCCN1CC[C@@H](CNC(=O)c2cc(Cl)c(N)c3c2OCCC3)[C@H](O)C1 (relative stereo) [Compound 78, trans-5-amino-N-[(1-butyl-3-hydroxy-4-piperidinyl)methyl]-6-chloro-3,4-dihydro-2H-1-benzopyran-8-carboxamide] | – | – | -33 | -50
CCCCN1CC[C@@H](CNC(=O)c2cc(Cl)c(N)c3c2OCC3)[C@@H](O)C1 (racemic) [Compound 1] | −0.20 | −0.23 | – | –
CS(=O)(=O)NCCN1CC[C@@H](CNC(=O)c2cc(Cl)c(N)c3c2OCC3)[C@H](O)C1 (racemic) [Compound 20] | −0.28 | −0.20 | – | –
N#CCN1CC[C@@H](CNC(=O)c2cc(Cl)c(N)c3c2OCCC3)[C@H](O)C1 (relative stereo) [Compound 76] | −0.18 | – | – | –
CCCCN1CC[C@@H](CNC(=O)c2cc(Cl)c(N)c3c2OCCO3)[C@@H](O)C1.Cl.O (relative stereo) [Compound 54] | −0.28 | 0.04 | – | –
CCCCN1CC[C@@H](CNC(=O)c2cc(Cl)c(N)c3c2OCCO3)[C@H](O)C1 (relative stereo) [Compound 55, (trans)-8-amino-N-[(1-butyl-3-hydroxy-4-piperidinyl)methyl]-7-chloro-2,3-dihydro-1,4-benzodioxin-5-carboxamide] | – | – | -18 | -29
CCCCN1CC[C@@H](CNC(=O)c2cc(Cl)c(N)c3c2OC(C)(C)C3)[C@H](O)C1 (racemic) [Compound 36] | −0.01 | – | – | –
(cis)-4-amino-5-chloro-2,3-dihydro-N-[[3-hydroxy-1-[3-(2-methyl-1,3-dioxolan-2-yl)propyl-]4-piperidinyl]methyl]-7-benzofurancarboxamide [Compound 7] | 0.11 | −0.07 | – | –
Nc1c(Cl)cc(C(=O)NC[C@@H]2CCN(CCCO)C[C@H]2O)c2c1CCCO2.O.O (relative stereo) [Compound 74] | −0.51 | – | – | –
COCCCN1CC[C@@H](CNC(=O)c2cc(Cl)c(N)c3c2OCC3)[C@H](O)C1 (relative stereo) [Compound 3, trans-4-amino-5-chloro-2,3-dihydro-N-[[3-hydroxy-1-(3-methoxypropyl)-4-piperidinyl]methyl]-7-benzofurancarboxamide] | – | – | -51 | -73
CCCCN1CC[C@@H](CNC(=O)c2cc(Cl)c(N)c3c2OCC3)[C@H](OC)C1 (racemic) [Compound 29] | −0.51 | −0.32 | – | –
CC(=O)CCCN1CC[C@@H](CNC(=O)c2cc(Cl)c(N)c3c2OCCC3)[C@H](O)C1 (relative stereo) [Compound 80] | −0.51 | −0.11 | – | –
N#CCCCN1CC[C@@H](CNC(=O)c2cc(Cl)c(N)c3c2OCC3)[C@H](O)C1 (racemic) [Compound 18] | −0.57 | −0.47 | – | –
COCCCN1CC[C@@H](CNC(=O)c2cc(Cl)c(N)c3c2OC(C)(C)C3)[C@H](O)C1 (relative stereo) [Compound 40, trans-(+)-4-amino-5-chloro-2,3-dihydro-N-[[3-hydroxy-1-(3-methoxypropyl)-4-piperidinyl]methyl]-2,2-dimethyl-7-benzofurancarboxamide] | −0.22 | −0.17 | – | –
CC(=O)CCCN1CC[C@@H](CNC(=O)c2cc(Cl)c(N)c3c2OC(C)(C)C3)[C@H](O)C1 (racemic) [Compound 49] | −0.28 | −0.19 | – | –
